Experimental data reported in patent publication US8119647B2, “Fused pyrimidineone compounds as TRPV3 modulators” (Glenmark Pharmaceuticals S.A., priority 2008, dated 2012).
Where two headings read alike, the source gives them in different places.

Molecular target: T1, Human TRPV3 (Homo sapiens, UniProt Q8NET8)
T1 construct: expressed in transfected cells; host or cells: CHO cells (G-418 selection)
T1 sequence (Q8NET8 1-790): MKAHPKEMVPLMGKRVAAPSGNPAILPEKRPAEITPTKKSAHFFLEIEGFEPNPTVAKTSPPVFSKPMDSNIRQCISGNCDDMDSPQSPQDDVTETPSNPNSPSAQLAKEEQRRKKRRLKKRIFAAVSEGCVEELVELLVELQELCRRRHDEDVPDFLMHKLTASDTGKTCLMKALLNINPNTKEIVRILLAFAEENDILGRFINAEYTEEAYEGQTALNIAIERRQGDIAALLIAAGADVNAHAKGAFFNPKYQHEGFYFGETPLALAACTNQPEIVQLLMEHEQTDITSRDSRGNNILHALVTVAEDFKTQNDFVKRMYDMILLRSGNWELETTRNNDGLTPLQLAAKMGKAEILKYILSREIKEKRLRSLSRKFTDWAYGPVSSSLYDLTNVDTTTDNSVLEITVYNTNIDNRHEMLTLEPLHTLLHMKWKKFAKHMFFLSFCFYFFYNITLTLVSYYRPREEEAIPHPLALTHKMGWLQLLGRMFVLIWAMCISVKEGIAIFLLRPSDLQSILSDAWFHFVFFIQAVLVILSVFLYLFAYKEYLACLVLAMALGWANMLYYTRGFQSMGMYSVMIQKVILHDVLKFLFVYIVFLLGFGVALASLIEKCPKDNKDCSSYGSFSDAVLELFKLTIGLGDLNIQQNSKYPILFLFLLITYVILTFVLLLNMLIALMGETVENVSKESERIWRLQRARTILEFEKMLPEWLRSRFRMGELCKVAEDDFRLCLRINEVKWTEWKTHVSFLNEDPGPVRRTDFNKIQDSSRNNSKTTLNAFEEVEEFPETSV
Assay: Screening for TRPV3 antagonist using the 45Calcium uptake assay (inhibition of 2-APB induced cellular uptake of radioactive calcium)
Assay type: cell-based
Conditions: for inhibition at 1 µM: read-out: Percentage inhibition at 1.0 μM; for inhibition at 10 µM: read-out: Percentage inhibition at 10.0 μM; for IC50: class symbols
Text: The illustrative examples of the present invention are screened for TRPV3 activity according to a modified procedure described in Tóth, A., Kedei, N., Wang, Y. and Blumberg, P. M. Life Sciences (2003), 73, 487-498. The screening of the compounds can be carried out by other methods and procedures known to a person skilled in the art. Such screening methods may be found in (a) Hu, H.-Z. et al. J. Biol. Chem. (2004), 279, 35741-35747; (b) Smith, G. D. et al. Nature (2002), 418, 186-190; (c) Peier, A. M. et al. Science (2002), 296, 2046-2049.
Screening for TRPV3 Antagonist Using the ^45Calcium Uptake Assay:
The inhibition of TRPV3 receptor activation was followed as inhibition of 2-aminoethoxydiphenylborate (2-APB) induced cellular uptake of radioactive calcium. Test compounds were dissolved in dimethyl sulfoxide (DMSO) to prepare 20 mM stock solution and then diluted using plain medium with DMEM/F-12 containing 1.8 mM CaCl2 to get desired concentration. Final concentration of DMSO in the reaction was 0.5% (v/v). Human TRPV3 expressing CHO cells were grown in DMEM/F-12 medium with 10% FBS, 1% penicillin-streptomycin solution, 400 μg/ml of G-418. Cells were seeded 24 h prior to the assay in 96 well plates so as to get ˜50,000 cells per well on the day of experiment. Cells were treated with test compounds for 10 minutes followed by addition of 2-APB at a final concentration of 500 μM and 5 μCi/ml ^45Ca^+2 for 4 minutes. Cells were washed and lysed using buffer containing 1% Triton X-100, 0.1% deoxycholate and 0.1% SDS. Radioactivity in the lysate was measured in Packardt Top count after addition of liquid scintillant. Concentration response curves were plotted as a % of maximal response obtained in the absence of test antagonist. IC50 value was calculated from concentration response curve by nonlinear regression analysis using GraphPad PRISM software.
Percentage inhibition at concentrations of 1.0 μM and 10.0 μM are given in the table along with IC50 (nM) values for selected examples.

[1] = 1.0 μM test compound, human TRPV3 expressing CHO cells, 2-APB 500 μM
[2] = 10.0 μM test compound, human TRPV3 expressing CHO cells, 2-APB 500 μM
[3] = human TRPV3 expressing CHO cells, 2-APB 500 μM

SMILES | Percentage inhibition at 1.0 μM [1] | inhibition at 1 µM [1] | inhibition at 10 µM [2] | other results
COc1cccc(/C=C/c2nc3sccn3c(=O)c2-c2ccc(OC(F)(F)F)cc2)c1OCC(C)(C)C [Example 52, 7-[(E)-2-{3-Methoxy-2-neopentyloxyphenyl}-1-ethenyl]-6-[4-(trifluoromethoxy)phenyl]-5H-[1,3]thiazolo[3,2-a]pyrimidin-5-one] |  | 78.4% | 90.3% | IC50 [3]: < 250 nM
COc1cc(/C=C/c2nc3sccn3c(=O)c2-c2ccc(C(F)(F)F)cc2)ccc1OCC1CC1 [Example 38, 7-[(E)-2-(4-Cyclopropylmethoxy-3-methoxyphenyl)-1-ethenyl]-6-[4-(trifluoromethyl)-phenyl]-5H-[1,3]thiazolo[3,2-a]pyrimidin-5-one] |  | 28.6% | 50.2% | 
COc1cccc(/C=C/c2nc3sccn3c(=O)c2-c2ccc(C(F)(F)F)cc2)c1OCCCC#N [Example 30] | 45.2% |  |  | Percentage inhibition at 10.0 μM [2]: 75.9%
COc1cccc(/C=C/c2nc3sccn3c(=O)c2-c2ccc(N(C)C)cc2)c1OCC(C)(C)C [Example 42, 6-(4-Dimethylaminophenyl)-7-[(E)-2-(3-methoxy-2-neopentyloxy)phenyl-1-ethenyl]-5H-[1,3]thiazolo[3,2-a]pyrimidin-5-one] |  | 62.7% | 78.5% | 
COc1cccc(/C=C/c2nc3sccn3c(=O)c2-c2ccc(OC(F)(F)F)cc2)c1OCC(C)C [Example 51, 7-[(E)-2-(2-Isobutoxy-3-methoxyphenyl)-1-ethenyl]-6-[4-(trifluoromethoxy)phenyl]-5H-[1,3]thiazolo[3,2-a]pyrimidin-5-one] |  | 89.1% | 95.6% | IC50 [3]: < 250 nM
COc1cccc(/C=C/c2nc3sccn3c(=O)c2-c2ccc(OCC3CC3)cc2)c1OCC1CC1 [Example 47, 7-[(E)-2-(2-Cyclopropylmethoxy-3-methoxyphenyl)-1-ethenyl]-6-(4-cyclopropylmethoxyphenyl]-5H-[1,3]thiazolo[3,2-a]pyrimidin-5-one] |  | 43.7% | 69.2% | 
COc1cccc(/C=C/c2nc3sccn3c(=O)c2-c2ccc(C(C)(C)C)cc2)c1OCC1CC1 [Example 4] |  | 66.5% | 84.7% | IC50 [3]: 250 to 500 nM
N#Cc1ccc(-c2c(/C=C/c3cccnc3)nc3sccn3c2=O)cc1 [Example 23, 4-{5-Oxo-7-[(E)-2-(3-pyridyl)-1-ethenyl]-5H-[1,3]thiazolo[3,2-a]pyrimidin-6-yl}-benzonitrile] |  | 15.4% | 1.2% | 
COc1cccc(/C=C/c2nc3sccn3c(=O)c2-c2ccc(OCCCC#N)cc2)c1OCC1CC1 [Example 46] |  |  |  | inhibition at 1 µM (CHO): 10%; inhibition at 10 µM (CHO): 52.8%
O=c1c(-c2ccc(OC(F)(F)F)cc2)c(/C=C/c2cccc(F)c2OCC2CC2)nc2sccn12 [Example 49, 7-[(E)-2-(2-Cyclopropylmethoxy-3-fluorophenyl)-1-ethenyl]-6-[4-(trifluoromethoxy)-phenyl]-5H-[1,3]thiazolo[3,2-a]pyrimidin-5-one] |  | 41.3% | 77.3% | 
COc1cccc(/C=C/c2nc3sc4ccccc4n3c(=O)c2-c2ccc(C#N)cc2)c1OCC1CCC1 [Example 89] | 26.90% |  |  | Percentage inhibition at 10.0 μM [2]: 57.53%
COCCOc1c(/C=C/c2nc3sccn3c(=O)c2-c2ccc(C#N)cc2)cccc1OC [Example 14, 4-{7-[(E)-2-(3-Methoxy-2-(2-methoxyethoxy)phenyl]-1-ethenyl}-5-oxo-5H-[1,3]-thiazolo[3,2-a]pyrimidin-6-yl}benzonitrile] |  | 41% | 88.1% | 
COc1cccc(/C=C/c2nc3sccn3c(=O)c2-c2ccc(C#N)cc2)c1OCc1ccccn1 [Example 21] | 14.88% |  |  | Percentage inhibition at 10.0 μM: 11.60%

The next lines start with results.

Percentage inhibition at 1.0 μM [1] | inhibition at 1 µM [1] | inhibition at 10 µM [2] | SMILES | other results
23.11% |  |  | COCCOc1c(/C=C/c2nc3sc4ccccc4n3c(=O)c2-c2ccc(C(F)(F)F)cc2)cccc1OC [Example 92, 2-{(E)-2-[(2-Methoxyethoxy)-3-methoxyphenyl]-1-ethenyl}-3-(4-trifluoromethylphenyl)-4H-benzo[4,5][1,3]thiazolo-[3,2-a]pyrimidin-4-one] | Percentage inhibition at 10.0 μM [2]: 47.48%
41.32% |  |  | O=c1c(-c2ccc(OC(F)(F)F)cc2)c(/C=C/c2cccc(O)c2OCC2CC2)nc2sccn12 [Example 60] | Percentage inhibition at 10.0 μM [2]: 81.57%
4.98% |  |  | COc1cccc(/C=C/c2nc3sc4ccccc4n3c(=O)c2-c2ccc(C(F)(F)F)cc2)c1OCC1CC1 [Example 91, 2-{(E)-2-[(2-Cyclopropylmethoxy)-3-methoxyphenyl]-1-ethenyl}-3-(4-trifluoromethyl-phenyl)-4H-benzo[4,5][1,3]thiazolo-[3,2-a]pyrimidin-4-one] | Percentage inhibition at 10.0 μM [2]: 19.85%
 | 81.7% | 92.8% | CCCCCOc1c(/C=C/c2nc3sccn3c(=O)c2-c2ccc(OC(F)(F)F)cc2)cccc1OC [Example 55, 7-[(E)-2-(3-Methoxy-2-pentyloxyphenyl)-1-ethenyl]-6-[4-(trifluoromethoxy)phenyl]-5H-[1,3]thiazolo[3,2-a]pyrimidin-5-one] | IC50 [3]: < 250 nM
 | 61.9% | 79.3% | COc1cccc(/C=C/c2nc3scc(C)n3c(=O)c2-c2ccc(OC(F)(F)F)cc2)c1OCC1CC1 [Example 76, 7-[(E)-2-(2-Cyclopropylmethoxy-3-methoxyphenyl)-1-ethenyl]-3-methyl-6-[4-(trifluoromethoxy)phenyl]-5H-[1,3]thiazolo[3,2-a]pyrimidin-5-one] | 
 | 80.2% | 92.2% | COc1cccc(/C=C/c2nc3sccn3c(=O)c2-c2ccc(OC(F)(F)F)cc2)c1OCC1CCC1 [Example 67, 7-[(E)-2-{2-Cyclobutylmethoxy-3-methoxyphenyl}-1-ethenyl]-6-[4-(trifluoromethoxy)-phenyl]-5H-[1,3]thiazolo[3,2-a]pyrimidin-5-one] | IC50 [3]: < 250 nM
6.53% |  |  | CCOCCOc1c(/C=C/c2nc3sc4ccccc4n3c(=O)c2-c2ccc(C(F)(F)F)cc2)cccc1OC [Example 93, 2-{(E)-2-[(2-Ethoxyethoxy)-3-methoxyphenyl]-1-ethenyl}-3-(4-trifluoromethyl-phenyl)-4H-benzo[4,5][1,3]thiazolo-[3,2-a]pyrimidin-4-one] | Percentage inhibition at 10.0 μM [2]: 40.18%
 | 57.9% |  | COc1cccc(/C=C/c2nc3sc(Cl)cn3c(=O)c2-c2ccc(N(C)C)cc2)c1OCC(C)(C)C [Example 79, 2-Chloro-6-[4-(dimethylamino)phenyl]-7-[(E)-2-(2-(2,2-dimethylpropoxy)-3-methoxy-phenyl)vinyl]-5H-[1,3]thiazolo[3,2-a]pyrimidin-5-one] | 
 | 90.8% | 97.9% | COc1cccc(/C=C/c2nc3sccn3c(=O)c2-c2ccc(OC(F)(F)F)cc2)c1OCCC(F)(F)F [Example 70, 7-[(E)-2-{3-Methoxy-2-(2-trifluoromethylethoxy)phenyl}-1-ethenyl]-6-[4-(trifluoromethoxy)phenyl]-5H-[1,3]thiazolo[3,2-a]pyrimidin-5-one] | IC50 [3]: < 250 nM
